Experimental data from patent US7642221B2, “Substituted thien-3-yl-sulphonylamino(thio)carbonyl-triazoline(ethi)ones” (Bayer Aktiengesellschaft, priority 1999, dated 2010).

Columns and labels:
Assay type in all cases: in vivo
[1] = tested on: weeds; test: Post-emergence test, activity against weeds
Experimental: (§1) • Solvent: 5 parts by weight of acetone • Emulsifier: 1 part by weight of alkylaryl polyglycol ether
(§2) To produce a suitable preparation of active compound, one part by weight of active compound is mixed with the stated amount of solvent, the stated amount of emulsifier is added and the concentrate is diluted with water to the desired concentration.
(§3) Test plants which have a height of 5-15 cm are sprayed with the preparation of active compound such that the particular amounts of active compound desired are applied per unit area. The concentration of the spray liquor is chosen so that the particular amounts of active compound desired are applied in 1000 l of water/ha.
(§4) After three weeks, the degree of damage to the plants is rated in % damage in comparison to the development of the untreated control.
(§5) The figures denote: • 0%=no effect (like untreated control) • 100%=total destruction

[2] = tested on: Wheat; test: Pre-emergence test/greenhouse; details: greenhouse, 125 g of ai/ha, rated after three weeks
Experimental: as §1
(§6) To produce a suitable preparation of active compound, 1 part by weight of active compound is mixed with the stated amount of solvent, the stated amount of emulsifier is added and the concentrate is diluted with water to the desired concentration.
(§7) Seeds of the test plants are sown in normal soil. After about 24 hours, the soil is sprayed with the preparation of active compound such that the particular amount of active compound desired is applied per unit area. The concentration of the spray liquor is chosen so that the particular amount of active compound desired is applied in 1000 liters of water per hectare.
as §4
(§8) The figure denote: • 0%=no effect (like untreated control) • 100%=total destruction

[3] = tested on: Cyperus; test: Pre-emergence test/greenhouse; details: greenhouse, rated after three weeks
Experimental: as §1, §6, §7, §4, §8

[4] = tested on: Stellaria; test: Pre-emergence test/greenhouse; details: greenhouse, 125 g of ai/ha, rated after three weeks
Experimental: as §1, §6, §7, §4, §8

[5] = tested on: Viola; test: Pre-emergence test/greenhouse; details: greenhouse, 125 g of ai/ha, rated after three weeks
Experimental: as §1, §6, §7, §4, §8

[6] = tested on: Echinochloa; test: Pre-emergence test/greenhouse; details: greenhouse, 125 g of ai/ha, rated after three weeks
Experimental: as §1, §6, §7, §4, §8

[7] = tested on: Bromus; test: Pre-emergence test/greenhouse; details: greenhouse, 125 g of ai/ha, rated after three weeks
Experimental: as §1, §6, §7, §4, §8

[8] = tested on: Solanum; test: Pre-emergence test/greenhouse; details: greenhouse, rated after three weeks
Experimental: as §1, §6, §7, §4, §8

[9] = tested on: Veronica; test: Pre-emergence test/greenhouse; details: greenhouse, 125 g of ai/ha, rated after three weeks
Experimental: as §1, §6, §7, §4, §8

[10] = tested on: weeds; test: Pre-emergence test, activity against weeds
Experimental: as §1, §6, §7, §4, §8

[11] = tested on: Wheat; test: Post-emergence test/greenhouse; details: greenhouse, rated after three weeks
Experimental: as §1, §2, §3, §4, §5

[12] = tested on: Matricaria; test: Post-emergence test/greenhouse; details: greenhouse, 8 g of ai/ha, rated after three weeks
Experimental: as §1, §2, §3, §4, §5

[13] = tested on: Ipomoea; test: Post-emergence test/greenhouse; details: greenhouse, 8 g of ai/ha, rated after three weeks
Experimental: as §1, §2, §3, §4, §5

[14] = tested on: Stellaria; test: Post-emergence test/greenhouse; details: greenhouse, rated after three weeks
Experimental: as §1, §2, §3, §4, §5

[15] = tested on: Abutilon; test: Post-emergence test/greenhouse; details: greenhouse, rated after three weeks
Experimental: as §1, §2, §3, §4, §5

[16] = tested on: Amaranthus; test: Post-emergence test/greenhouse; details: greenhouse, rated after three weeks
Experimental: as §1, §2, §3, §4, §5

[17] = tested on: Solanum; test: Post-emergence test/greenhouse; details: greenhouse, 8 g of ai/ha, rated after three weeks
Experimental: as §1, §2, §3, §4, §5

[18] = tested on: Xanthium; test: Pre-emergence test/greenhouse; details: greenhouse, 250 g of ai/ha, rated after three weeks
Experimental: as §1, §6, §7, §4, §8

[19] = tested on: Alopecurus; test: Pre-emergence test/greenhouse; details: greenhouse, rated after three weeks
Experimental: as §1, §6, §7, §4, §8

[20] = tested on: Setaria; test: Pre-emergence test/greenhouse; details: greenhouse, rated after three weeks
Experimental: as §1, §6, §7, §4, §8

[21] = tested on: Galium; test: Pre-emergence test/greenhouse; details: greenhouse, 250 g of ai/ha, rated after three weeks
Experimental: as §1, §6, §7, §4, §8

[22] = tested on: Abutilon; test: Pre-emergence test/greenhouse; details: greenhouse, 250 g of ai/ha, rated after three weeks
Experimental: as §1, §6, §7, §4, §8

[23] = tested on: Amaranthus; test: Pre-emergence test/greenhouse; details: greenhouse, rated after three weeks
Experimental: as §1, §6, §7, §4, §8

[24] = tested on: Sinapis; test: Pre-emergence test/greenhouse; details: greenhouse, 250 g of ai/ha, rated after three weeks
Experimental: as §1, §6, §7, §4, §8

[25] = tested on: Barley; test: Post-emergence test/greenhouse; details: greenhouse, 2 g of ai/ha, rated after three weeks
Experimental: as §1, §2, §3, §4, §5

[26] = tested on: Viola; test: Post-emergence test/greenhouse; details: greenhouse, 2 g of ai/ha, rated after three weeks
Experimental: as §1, §2, §3, §4, §5

[27] = tested on: Echinochloa; test: Post-emergence test/greenhouse; details: greenhouse, 2 g of ai/ha, rated after three weeks
Experimental: as §1, §2, §3, §4, §5

[28] = tested on: Chenopodium; test: Post-emergence test/greenhouse; details: greenhouse, 2 g of ai/ha, rated after three weeks
Experimental: as §1, §2, §3, §4, §5

[29] = tested on: Veronica; test: Post-emergence test/greenhouse; details: greenhouse, 2 g of ai/ha, rated after three weeks
Experimental: as §1, §2, §3, §4, §5

[30] = tested on: Matricaria; test: Pre-emergence test/greenhouse; details: greenhouse, 60 g of ai/ha, rated after three weeks
Experimental: as §1, §6, §7, §4, §8

[31] = tested on: Digitaria; test: Pre-emergence test/greenhouse; details: greenhouse, 60 g of ai/ha, rated after three weeks
Experimental: as §1, §6, §7, §4, §8

[32] = tested on: Chenopodium; test: Pre-emergence test/greenhouse; details: greenhouse, 60 g of ai/ha, rated after three weeks
Experimental: as §1, §6, §7, §4, §8

[33] = tested on: Maize; test: Pre-emergence test/greenhouse; details: greenhouse, 60 g of ai/ha, rated after three weeks
Experimental: as §1, §6, §7, §4, §8

[34] = tested on: Avenafatua; test: Post-emergence test/greenhouse; details: greenhouse, 250 g of ai/ha, rated after three weeks
Experimental: as §1, §2, §3, §4, §5

[35] = tested on: Xanthium; test: Post-emergence test/greenhouse; details: greenhouse, 250 g of ai/ha, rated after three weeks
Experimental: as §1, §2, §3, §4, §5

[36] = tested on: Alopecurus; test: Post-emergence test/greenhouse; details: greenhouse, 250 g of ai/ha, rated after three weeks
Experimental: as §1, §2, §3, §4, §5

[37] = tested on: Setaria; test: Post-emergence test/greenhouse; details: greenhouse, 250 g of ai/ha, rated after three weeks
Experimental: as §1, §2, §3, §4, §5

[38] = tested on: Sinapis; test: Post-emergence test/greenhouse; details: greenhouse, 250 g of ai/ha, rated after three weeks
Experimental: as §1, §2, §3, §4, §5

In the case of `COC(=O)c1csc(C)c1S(=O)(=O)NC(=O)n1nc(OC(C)C)n(C)c1=O` [Example 4], the activity against weeds [1] is reported as “very strong activity”, the “degree of damage to the plants, Wheat” value [2] is reported as 20% and the “degree of damage to the plants, Cyperus” value ([3]; 125 g of ai/ha) is reported as 100%. For the same molecule, the “degree of damage to the plants, Stellaria” value (“degree of damage … Stellaria” for short) [4] was 100%, the “degree of damage to the plants, Viola” value [5] was 100% and the “degree of damage to the plants, Echinochloa” value [6] was 100%. For the same molecule, the “degree of damage to the plants, Bromus” value [7] was 100%, the “degree of damage to the plants, Solanum” value ([8]; 125 g of ai/ha) was 100% and the “degree of damage to the plants, Veronica” value [9] was 100%. For the same molecule, the activity against weeds [10] was “very strong activity”, the “degree of damage to the plants, Wheat” value ([11]; 8 g of ai/ha) was 10% and the “degree of damage to the plants, Matricaria” value [12] was 90%. The “degree of damage to the plants, Ipomoea” value [13] was 95%, the “degree of damage … Stellaria” value ([14]; 8 g of ai/ha) was 95% and the “degree of damage to the plants, Abutilon” value ([15]; 8 g of ai/ha) was 95%. For the same molecule, the “degree of damage to the plants, Amaranthus” value (shortened to “degree of damage … Amaranthus”) ([16]; 8 g of ai/ha) was 95% and the “degree of damage to the plants, Solanum” value [17] was 95%.

With `COC(=O)c1csc(C)c1S(=O)(=O)NC(=O)n1nc(OC)n(C2CC2)c1=O` [Example 5] the activity against weeds [1] was “very strong activity”, the “degree of damage to the plants, Cyperus” value ([3]; 250 g of ai/ha) was 100% and the “degree of damage to the plants, Xanthium” value [18] was 99%. For the same molecule, the “degree of damage to the plants, Alopecurus” value (“degree of damage … Alopecurus” for short) ([19]; 250 g of ai/ha) was 99%, the “degree of damage to the plants, Setaria” value ([20]; 250 g of ai/ha) was 100% and the “degree of damage to the plants, Galium” value [21] was 95%. For the same molecule, the “degree of damage to the plants, Abutilon” value [22] was 95%, the “degree of damage … Amaranthus” value ([23]; 250 g of ai/ha) was 100% and the “degree of damage to the plants, Sinapis” value [24] was 95%. For the same molecule, the activity against weeds [10] was “very strong activity”, the “degree of damage to the plants, Wheat” value ([11]; 2 g of ai/ha) was 10% and the “degree of damage to the plants, Barley” value [25] was 10%. The “degree of damage … Stellaria” value ([14]; 2 g of ai/ha) was 100%, the “degree of damage to the plants, Viola” value [26] was 90% and the “degree of damage to the plants, Echinochloa” value [27] was 95%. For the same molecule, the “degree of damage to the plants, Chenopodium” value [28] was 95%, the “degree of damage … Amaranthus” value ([16]; 2 g of ai/ha) was 99% and the “degree of damage to the plants, Veronica” value [29] was 90%.

`CCc1nn(C(=O)NS(=O)(=O)c2c(C(=O)OC)csc2C)c(=O)n1C` [Example 11] was tested, and the activity against weeds [1] was “very strong activity”, the “degree of damage to the plants, Matricaria” value [30] was 100% and the “degree of damage … Alopecurus” value ([19]; 60 g of ai/ha) was 100%. For the same molecule, the “degree of damage to the plants, Setaria” value ([20]; 60 g of ai/ha) was 100%, the “degree of damage to the plants, Digitaria” value [31] was 100% and the “degree of damage to the plants, Chenopodium” value [32] was 100%. For the same molecule, the “degree of damage … Amaranthus” value ([23]; 60 g of ai/ha) was 100%, the “degree of damage to the plants, Solanum” value ([8]; 60 g of ai/ha) was 100% and the “degree of damage to the plants, Maize” value [33] was 10%. The activity against weeds [10] was “very strong activity”, the “degree of damage to the plants, Avenafatua” value [34] was 100% and the “degree of damage to the plants, Xanthium” value [35] was 100%. For the same molecule, the “degree of damage … Alopecurus” value [36] was 100%, the “degree of damage to the plants, Setaria” value [37] was 100% and the “degree of damage to the plants, Abutilon” value ([15]; 250 g of ai/ha) was 100%. For the same molecule, the “degree of damage … Amaranthus” value ([16]; 250 g of ai/ha) was 100% and the “degree of damage to the plants, Sinapis” value [38] was 100%.
